Data published in PMC11945486, “TAS1R2/TAS1R3 Single-Nucleotide Polymorphisms Affect Sweet Taste Receptor Activation by Sweeteners: The SWEET Project” (Nutrients, 2025).

Molecular target: T1, human TAS1R2-I191V (subunit alone) (Homo sapiens, UniProt Q8TE23, I191V)
T1 construct: expressed in transfected cells; host or cells: HEK293T-Gα16gust44
T1 sequence (Q8TE23 20-839 I191V): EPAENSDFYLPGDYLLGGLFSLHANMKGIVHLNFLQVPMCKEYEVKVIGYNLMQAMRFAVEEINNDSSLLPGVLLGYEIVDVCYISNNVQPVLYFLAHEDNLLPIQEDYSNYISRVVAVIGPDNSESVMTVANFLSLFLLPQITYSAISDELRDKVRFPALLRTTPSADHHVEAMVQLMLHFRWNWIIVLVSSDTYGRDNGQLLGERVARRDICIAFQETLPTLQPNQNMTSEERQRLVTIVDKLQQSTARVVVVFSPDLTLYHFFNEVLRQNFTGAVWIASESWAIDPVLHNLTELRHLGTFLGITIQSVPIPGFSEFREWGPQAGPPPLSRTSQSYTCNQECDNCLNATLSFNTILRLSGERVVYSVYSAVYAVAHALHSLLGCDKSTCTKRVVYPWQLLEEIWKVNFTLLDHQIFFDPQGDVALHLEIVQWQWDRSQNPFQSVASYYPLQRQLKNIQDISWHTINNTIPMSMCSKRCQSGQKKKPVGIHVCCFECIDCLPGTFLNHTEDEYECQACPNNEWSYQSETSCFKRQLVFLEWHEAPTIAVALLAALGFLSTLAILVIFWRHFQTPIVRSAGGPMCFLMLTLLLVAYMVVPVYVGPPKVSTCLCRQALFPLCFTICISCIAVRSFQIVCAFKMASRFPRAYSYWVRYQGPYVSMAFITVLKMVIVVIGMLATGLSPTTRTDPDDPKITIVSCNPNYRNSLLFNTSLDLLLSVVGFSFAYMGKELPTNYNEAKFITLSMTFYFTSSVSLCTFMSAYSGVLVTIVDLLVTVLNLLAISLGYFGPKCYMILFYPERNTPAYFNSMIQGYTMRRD
Test: Calcium mobilisation assay, TAS1R2-I191V subunit alone
Type: cell-based
From the text: The coding sequences for TAS1R2 and TAS1R3 were commercially synthesised, and the human codon was optimised for expression in human cells. The coding sequences of human TAS1R2 and TAS1R3 were subcloned and inserted into the mammalian expression vectors pcDNA6/myc-HisA and pcDNA4/myc-HisA (Invitrogen; Thermo Fisher Scientific; Illkirch, France) between the EcoRI and NotI restriction sites, generating the plasmids pcDNA6-TAS1R2 and pcDNA4-TAS1R3, respectively. To increase protein expression in mammalian cells, an upstream start codon was used, which was a sequence called MAX, corresponding to the QBI SP163 element also described in pcDNA4-HisMax (Invitrogen; Thermo Fisher Scientific; Illkirch, France). To measure the expression level of the receptor by immunohistochemistry, we used the FLAG sequence ([…]) in the C-terminal position, which encodes the FLAG tag epitope. […]
The HEK293T cells were kindly provided by Jay P. Slack (Givaudan Flavors Corporation; Cincinnati, OH, USA). […] The fluorescence intensity was measured for 90 s (excitation 488 nm, emission 510 nm) in an automated fluorometric FlexStation®3 Multi-Mode microplate reader (Molecular Devices; San Jose, CA, USA). […] The Ca^2+ changes were expressed as fractional changes in fluorescent light intensity: ΔF/F = (F − F0)/F0, where F was the fluorescent light intensity at each point, and F0 was the value of emitted fluorescent light prior to stimulus application. To calculate dose–response relationships, the changes in fluorescence upon stimulus application were averaged, mock-subtracted and baseline-corrected. […] The half-maximal effective concentrations (EC50 values) and maximal signal amplitudes were calculated using SigmaPlot software (version 15.0) (Systat Software; San Jose, CA, USA).
For in vitro calcium mobilisation assay performed on hTAS1R2-SNPs, hTAS1R3-SNPs and mTAS1R3-I60T, 6 to 7 concentrations were tested for each sweet compound, plus buffer alone. All concentration–receptor combinations were measured in duplicate, and each experiment was repeated at least 4 times (8 wells/concentration). […]

EC50: 390 ± 47 µM
R1 = Variant EC50/WT EC50: 4.3
Max ΔF/F0 (maximal signal amplitude): 0.19 ± 0.01
SMILES: C=C(C)[C@@H]1CC=C(/C=N/O)CC1 [Perillartine, perillartine]
